Where a name gives a salt, the structure may show the parent alone.
Key:
[1] = Rodent pharmacokinetic study; format: in vivo; conditions: rat, whole blood, Wistar rats/Male; for AUC(0-t) / Cmax / Tmax / half-life: blood; for bioavailability: 3 mg/kg Per-Oral vs 1 mg/kg Intravenous
Procedure: Male Wistar rats (230-280 grams) were used as experimental animals. Three to five animals were housed in each cage. One day prior to dosing day, male wistar rats (225-250 grams) were anesthetized with isoflurane for surgical placement of jugular vein catheter. Animals were kept fasted over night and maintained on a 12 hours light/dark cycle. Three rats were dosed with compounds of formula (I) orally (3 mg/Kg) and intravenously (1 mg/kg) in two separate set of animals (n=3 rats/group). At each time point, blood was collected by jugular vein. Blood was stored frozen at […] until analysis. The concentrations of the compounds of formula (I) in blood were determined using LC-MS/MS method. Schedule time points: Pre dose 0.08 (only for i.v.) 0.25, 0.5, 1, 2, 4, 6, 8, and 24 hours after dosing (n=3). The compounds of formula (I) were quantified in blood by validated LC-MS/MS method using acetonitrile precipitation technique. The compounds of formula (I) were quantified in the calibration range of 1-1000 ng/mL in blood. Study samples were analyzed using calibration samples in the batch and quality control samples spread across the batch. Pharmacokinetic parameters Cmax, Tmax, AUCt, T1/2 and Bioavailability were calculated by non-compartmental model using software Pheonix WinNonlin version 6.0.1.

[2] = molecular target: Human or Rat Histamine H3 Receptor (UniProt Q9Y5N1); test: Binding assay for human or rat histamine H3 receptor ([3H] R-α-methylhistamine displacement); conditions: [3H] R-α-methylhistamine 3.0 nM, rat brain frontal cortex or recombinant human receptor in CHO cells (source for table not stated)
Procedure: Binding and Functional Assays for Human or Rat Histamine H3 Receptor
Compounds can be evaluated according to the following procedures.
• Receptor source: Rat brain frontal cortex or recombinant human cDNA expressed in CHO cells • Radioligand: [^3H] R-α-methylhistamine • Final ligand concentration—[3.0 nM] • Non-specific determinant: R-α-methylhistamine (100 μM) • Reference compound: R-α-methylhistamine • Positive control: R-α-methylhistamine Incubation Conditions:
Increasing concentrations of test compounds or standard were incubated with membrane receptors and radioligand in 5 mM MgCl2 and 50 mM TRIS-HCl (pH 7.4) for 60 minutes at room temperature. The reaction was terminated by rapid vacuum filtration onto the glass fiber filters. Radioactivity trapped onto the filters was determined and compared to the control values in order to ascertain any interactions of the test compound(s) with either cloned human or rat receptor binding site.

[3] = Rodent brain penetration study; format: in vivo, Male Wistar rats; conditions: Wister rats/Male, 3 mg/kg, Per-oral; for Kp at 1 h: male, Wistar, rat, brain homogenate / whole blood, po, 1 h post dose, read-out: Brain Penetration @ 1 h post dose (Cbrain/Cblood)
Procedure: Male Wistar rats (230-280 grams) were used as experimental animals. Three animals were housed in each cage. Animals were given water and food ad libitum throughout the experiment and maintained on a 12 hours light/dark cycle. Brain penetration was determined in discrete manner in rats. One day prior to dosing day, male wistar rats (225-250 grams) were acclimatized. After acclimatization, the rats were grouped according to the weight in each group, 3 animals were kept in individual cage and allowed free access to food and water. At each time point (05, 1, and 2 hrs) n=3 animals were used. The compounds of formula (I) were dissolved in water and administered orally at (free base) 3 mg/kg. Blood samples were removed via, cardiac puncture by using light ether anesthesia the animals were sacrificed to collect brain tissue. Brain samples were homogenized and stored frozen at −20° C. until analysis. The concentrations of the compounds of formula (I) in blood and brain were determined using LC-MS/MS method. The compounds of formula (I) were quantified in blood and brain homogenate by validated LC-MS/MS method using acetonitrile precipitation technique. The compounds of formula (I) were quantified in the calibration range of 1-1000 ng/mL in blood and brain homogenate. Study samples were analyzed using calibration samples in the batch and quality control samples spread across the batch. Extents of brain to blood ratios were calculated (Cbrain/Cblood).

Male Wister rats = test: Object recognition task model; format: in vivo; conditions: p.o.; for Exploration time mean ± S.E.M, Familiar object / Exploration time mean ± S.E.M, Novel object: choice trial T2
Procedure: The cognition enhancing properties of compounds of this invention were estimated using a model of animal cognition: the object recognition task model.
Male Wister rats (230-280 grams) were used as experimental animals. Four animals were housed in each cage. Animals were kept on 20% food deprivation before one day and given water ad libitum throughout the experiment and maintained on a 12 hours light/dark cycle. Also the rats were habituated to individual arenas for 1 hour in the absence of any objects.
One group of 12 rats received vehicle (1 mL/Kg) orally and another set of animals received compound of the formula (I) either orally or i.p., before one hour of the familiar (T1) and choice trial (T2).
The experiment was carried out in a 50×50×50 cm open field made up of acrylic. In the familiarization phase, (T1), the rats were placed individually in the open field for 3 minutes, in which two identical objects (plastic bottles, 12.5 cm height×5.5 cm diameter) covered in yellow masking tape alone (a1 and a2) were positioned in two adjacent corners, 10 cm. from the walls. After 24 hours of the (T1) trial for long-term memory test, the same rats were placed in the same arena as they were placed in T1 trial. Choice phase (T2) rats were allowed to explore the open field for 3 minutes in presence of one familiar object (a3) and one novel object (b) (Amber color glass bottle, 12 cm high and 5 cm in diameter). Familiar objects presented similar textures, colors and sizes. During the T1 and T2 trial, explorations of each object (defined as sniffing, licking, chewing or having moving vibrissae whilst directing the nose towards the object at a distance of less than 1 cm) were recorded separately by stopwatch. Sitting on an object was not regarded as exploratory activity, however, it was rarely observed.
T1 is the total time spent exploring the familiar objects (a1+a2).
T2 is the total time spent exploring the familiar object and novel object (a3+b).
The object recognition test was performed as described by Ennaceur, A., Delacour, J., 1988, A new one-trial test for neurobiological studies of memory in rats—Behavioural data, Behav. Brain Res., 31, 47-59.

O=C(C=Cc1ccc(OC2CCN(C3CCC3)CC2)cc1)N1CCOCC1.O=C(O)/C=C/C(=O)O [Example 1, 3-[4-(1-Cyclobutylpiperidin-4-yloxy)phenyl]-1-(morpholin-4-yl)prop-2-ene-1-one fumarate salt]
AUC(0-t) ([1]; 1 mg/kg, Intravenous): 208 ± 7 ng·h/mL | Cmax ([1]; 1 mg/kg, Intravenous): 214 ± 25 ng/mL | Tmax ([1]; 1 mg/kg, Intravenous): 4.8 min | half-life ([1]; 1 mg/kg, Intravenous): 63 ± 4.2 min | bioavailability [1]: 29 ± 2% | AUC(0-t) ([1]; 3 mg/kg, Per-Oral): 176 ± 10 ng·h/mL | Cmax ([1]; 3 mg/kg, Per-Oral): 106 ± 5 ng/mL | Tmax ([1]; 3 mg/kg, Per-Oral): 30 min | half-life ([1]; 3 mg/kg, Per-Oral): 93.6 ± 25.8 min | Ki ([2]; fumarate salt): 1.32 nM | Brain Penetration @ 1 h post dose (Cbrain/Cblood) [3]: 1.40 | Inference (Male Wister rats; 1 mg/kg): Active | Exploration time mean ± S.E.M, Familiar object (Male Wister rats; 1 mg/kg): 5.96 ± 1.03 s | Exploration time mean ± S.E.M, Novel object (Male Wister rats; 1 mg/kg): 14.86 ± 1.92 s

O=C(C=Cc1ccc(OC2CCN(C3CCC3)CC2)cc1)N1CCS(=O)(=O)CC1 [Example 3, 3-[4-(1-Cyclobutylpiperidin-4-yloxy)phenyl]-1-(1,1-dioxothiomorpholin-4-yl)prop-2-ene-1-one hydrochloride salt]
Ki [2]: 1.4 nM

Cc1cc(OC2CCN(C(C)C)CC2)ccc1C=CC(=O)N1CCOCC1 [Example 9, 3-[4-(1-Isopropylpiperidin-4-yloxy)-2-methylphenyl]-1-(morpholin-4-yl)prop-2-ene-1-one L(+)-Tartarate salt]
Ki [2]: 13.1 nM

O=C(C=Cc1ccc(OC2CCN(C3CCC3)CC2)nc1)N1CCOCC1.O=C(O)C(O)C(O)C(=O)O [Example 5, 3-[2-(1-Cyclobutylpiperidin-4-yloxy)pyridin-5-yl]-1-(morpholin-4-yl)prop-2-ene-1-one L(+)-Tartarate salt]
AUC(0-t) ([1]; 1 mg/kg, Intravenous): 173 ± 13 ng·h/mL | Cmax ([1]; 1 mg/kg, Intravenous): 220 ± 10 ng/mL | Tmax ([1]; 1 mg/kg, Intravenous): 4.8 min | half-life ([1]; 1 mg/kg, Intravenous): 36 ± 12 min | bioavailability [1]: 35 ± 5% | AUC(0-t) ([1]; 3 mg/kg, Per-Oral): 184 ± 25 ng·h/mL | Cmax ([1]; 3 mg/kg, Per-Oral): 128 ± 6 ng/mL | Tmax ([1]; 3 mg/kg, Per-Oral): 25.2 ± 8.4 min | half-life ([1]; 3 mg/kg, Per-Oral): 66 ± 18 min | Ki [2]: 7.9 nM | Kp at 1 h [3]: 0.92 | Inference (Male Wister rats; 3 mg/kg): Active | Exploration time mean ± S.E.M, Familiar object (Male Wister rats; 3 mg/kg): 9.64 ± 2.22 s | Exploration time mean ± S.E.M, Novel object (Male Wister rats; 3 mg/kg): 15.53 ± 2.36 s

CC(C)N1CCC(Oc2ccc(C=CC(=O)N3CCOCC3)cc2Br)CC1 [Example 19, 3-[3-Bromo-4-(1-isopropylpiperidin-4-yloxy)phenyl]-1-(morpholin-4-yl)prop-2-ene-1-one]
Ki [2]: 17 nM

Cc1cc(OC2CCN(C3CCC3)CC2)ccc1C=CC(=O)N1CCOCC1 [Example 8, 3-[4-(1-Cyclobutylpiperidin-4-yloxy)-2-methylphenyl]-1-(morpholin-4-yl)prop-2-ene-1-one L(+)-Tartarate salt]
Ki [2]: 6.34 nM

CC(C)CN1CCC(Oc2ccc(C=CC(=O)N3CCOCC3)cc2)CC1 [Example 18, 3-[4-(1-Isobutylpiperidin-4-yloxy)phenyl]-1-(morpholin-4-yl)prop-2-ene-1-one]
Ki [2]: 32.4 nM

O=C(C=Cc1ccc(OC2CCN(C3CCC3)CC2)cc1Cl)N1CCOCC1 [Example 25, 3-[2-Chloro-4-(1-cyclobutylpiperidin-4-yloxy)phenyl]-1-(morpholin-4-yl)prop-2-ene-1-one]
Ki [2]: 29.7 nM

O=C(C=Cc1ccc(OC2CCN(C3CCC3)CC2)cc1F)N1CCOCC1.O=C(O)C(O)C(O)C(=O)O [Example 7, 3-[2-Fluoro-4-(1-cyclobutylpiperidin-4-yloxy)phenyl]-1-(morpholin-4-yl)prop-2-ene-1-one L(+)-Tartarate salt]
AUC(0-t) ([1]; 1 mg/kg, Intravenous): 167 ± 47 ng·h/mL | Cmax ([1]; 1 mg/kg, Intravenous): 311 ± 110 ng/mL | Tmax ([1]; 1 mg/kg, Intravenous): 4.8 min | half-life ([1]; 1 mg/kg, Intravenous): 36 ± 12 min | bioavailability [1]: 9 ± 5% | AUC(0-t) ([1]; 3 mg/kg, Per-Oral): 49 ± 29 ng·h/mL | Cmax ([1]; 3 mg/kg, Per-Oral): 57 ± 36 ng/mL | Tmax ([1]; 3 mg/kg, Per-Oral): 15 min | half-life ([1]; 3 mg/kg, Per-Oral): 54 ± 36 min | Ki [2]: 2.96 nM | Kp at 1 h [3]: 2.51

COc1cc(C=CC(=O)N2CCOCC2)ccc1OC1CCN(C2CCC2)CC1 [Example 11, 3-[4-(1-Cyclobutylpiperidin-4-yloxy)-3-methoxyphenyl]-1-(morpholin-4-yl)prop-2-ene-1-one L(+)-Tartarate salt]
Ki [2]: 77.2 nM

CC(C)N1CCC(Oc2ccc(C=CC(=O)N3CCOCC3)c(F)c2)CC1 [Example 6, 3-[2-Fluoro-4-(1-isopropylpiperidin-4-yloxy)phenyl]-1-(morpholin-4-yl)prop-2-ene-1-one L(+)-Tartarate salt]
Ki [2]: 17.5 nM

O=C(C=Cc1ccc(OC2CCN(CC3CC3)CC2)c(Br)c1)N1CCOCC1 [Example 22, 3-[3-Bromo-4-(1-cyclopropylmethylpiperidin-4-yloxy)phenyl]-1-(morpholin-4-yl)prop-2-ene-1-one]
Ki [2]: 52.6 nM

O=C(C=Cc1ccc(OC2CCN(C3CCC3)CC2)cc1)N1CCCCC1 [Example 2, 3-[4-(1-Cyclobutylpiperidin-4-yloxy)phenyl]-1-(piperidin-1-yl)prop-2-ene-1-one hydrochloride salt]
Ki [2]: 1.82 nM

O=C(C=Cc1ccc(OC2CCN(C3CCC3)CC2)cc1)N1CCOCC1.O=C(O)C(O)C(O)C(=O)O [Example 10, 3-[4-(1-Cyclobutylpiperidin-4-yloxy)phenyl]-1-(morpholin-4-yl)prop-2-ene-1-one L(+)-Tartarate salt]
AUC(0-t) ([1]; 1 mg/kg, Intravenous): 222 ± 33 ng·h/mL | Cmax ([1]; 1 mg/kg, Intravenous): 285 ± 46 ng/mL | Tmax ([1]; 1 mg/kg, Intravenous): 4.8 min | half-life ([1]; 1 mg/kg, Intravenous): 48 ± 3 min | bioavailability [1]: 58 ± 6% | AUC(0-t) ([1]; 3 mg/kg, Per-Oral): 387 ± 38 ng·h/mL | Cmax ([1]; 3 mg/kg, Per-Oral): 290 ± 32 ng/mL | Tmax ([1]; 3 mg/kg, Per-Oral): 15 min | half-life ([1]; 3 mg/kg, Per-Oral): 51 ± 8.4 min | Ki [2]: 3.43 nM | Kp at 1 h [3]: 1.36

O=C(C=Cc1ccc(OC2CCN(C3CCC3)CC2)c(Br)c1)N1CCOCC1 [Example 20, 3-[3-Bromo-4-(1-cyclobutylpiperidin-4-yloxy)phenyl]-1-(morpholin-4-yl)prop-2-ene-1-one]
Ki [2]: 5.97 nM

O=C(C=Cc1ccc(OC2CCN(C3CCC3)CC2)nc1)N1CCCCC1 [Example 4, 3-[2-(1-Cyclobutylpiperidin-4-yloxy)pyridin-5-yl]-1-(piperidin-1-yl)prop-2-ene-1-one L(+)-Tartarate salt]
Ki [2]: 7.82 nM

— patent US9328092B2, “Acrylamide compounds as histamine H3 receptor ligands” (Suven Life Sciences Limited, priority 2012, dated 2016)
